Test: mn = molality of the nth substance listed, in mol/kg
Conditions: Liquid, Vibrating tube method

[Br-].[Br-].[Zn+2] [zinc bromide] + CCO
Conditions | mass density [kg/m3]
373.14 K, 19874 kPa, m1 = 0.9305 | 872.91
373.14 K, 24846 kPa, m1 = 1.887 | 1005.15
373.14 K, 24985 kPa, m1 = 0.05681 | 753.48
373.14 K, 25624 kPa, m1 = 0.3043 | 790.48
373.14 K, 34851 kPa, m1 = 0.3043 | 799.55
373.14 K, 39921 kPa, m1 = 0.05681 | 767.81
373.15 K, 1032 kPa, m1 = 0.05681 | 723.97
373.15 K, 1228 kPa, m1 = 0.3043 | 761.13
373.15 K, 1745 kPa, m1 = 1.49 | 926.45
373.15 K, 4944 kPa, m1 = 0.4384 | 785.45
373.15 K, 5301 kPa, m1 = 1.49 | 931.02
373.15 K, 9796 kPa, m1 = 0.1696 | 752.88
373.15 K, 10025 kPa, m1 = 0.3043 | 772.61
373.15 K, 10059 kPa, m1 = 1.49 | 936.9
373.15 K, 14641 kPa, m1 = 0.1696 | 758.82
373.15 K, 14690 kPa, m1 = 0.9305 | 867.04
373.15 K, 14903 kPa, m1 = 0.4384 | 797.84
373.15 K, 15214 kPa, m1 = 1.49 | 942.98
373.15 K, 15627 kPa, m1 = 0.05681 | 742.91
373.15 K, 19954 kPa, m1 = 1.49 | 948.31
373.15 K, 20147 kPa, m1 = 0.3043 | 784.56
373.15 K, 24995 kPa, m1 = 0.9305 | 878.38
373.15 K, 25487 kPa, m1 = 1.49 | 954.2
373.15 K, 29987 kPa, m1 = 1.49 | 958.73
373.15 K, 30014 kPa, m1 = 0.05681 | 758.65
373.15 K, 34798 kPa, m1 = 0.4384 | 818.78
373.15 K, 35026 kPa, m1 = 1.49 | 963.54
373.15 K, 35841 kPa, m1 = 0.05681 | 764.21
373.15 K, 39669 kPa, m1 = 0.1696 | 784.45
373.15 K, 39689 kPa, m1 = 0.4384 | 823.15
373.15 K, 39845 kPa, m1 = 0.3043 | 804
373.15 K, 39954 kPa, m1 = 1.49 | 967.95
373.16 K, 5415 kPa, m1 = 0.3043 | 766.72
373.16 K, 10024 kPa, m1 = 0.05681 | 735.99
373.16 K, 15428 kPa, m1 = 0.3043 | 779.16
373.16 K, 29954 kPa, m1 = 0.3043 | 794.87
373.16 K, 34801 kPa, m1 = 0.1696 | 780.13
373.16 K, 34880 kPa, m1 = 1.887 | 1014.97
373.16 K, 34946 kPa, m1 = 0.9305 | 888.07
373.17 K, 1840 kPa, m1 = 0.9305 | 851.03
373.17 K, 5196 kPa, m1 = 0.9305 | 855.41
373.17 K, 9909 kPa, m1 = 0.9305 | 861.33
373.17 K, 19733 kPa, m1 = 0.1696 | 764.71
373.17 K, 19793 kPa, m1 = 0.4384 | 803.46
373.17 K, 20061 kPa, m1 = 0.05681 | 748.07
373.17 K, 29790 kPa, m1 = 0.9305 | 883.2
373.17 K, 39725 kPa, m1 = 1.887 | 1019.24
373.17 K, 39848 kPa, m1 = 0.9305 | 892.38
393.11 K, 5006 kPa, m1 = 0.1696 | 724.69
393.12 K, 5021 kPa, m1 = 1.887 | 958.47
393.12 K, 5106 kPa, m1 = 0.9305 | 833.37
393.12 K, 20028 kPa, m1 = 0.1696 | 745.51
393.12 K, 20063 kPa, m1 = 0.4384 | 784.5
393.12 K, 25074 kPa, m1 = 0.4384 | 790.6
393.12 K, 34785 kPa, m1 = 1.887 | 995.67
393.12 K, 34930 kPa, m1 = 0.4384 | 801.35
393.12 K, 39767 kPa, m1 = 1.887 | 1000.55
393.13 K, 9820 kPa, m1 = 0.4384 | 770.68
393.13 K, 19900 kPa, m1 = 1.887 | 978.73
393.13 K, 30105 kPa, m1 = 0.9305 | 865.29
393.13 K, 39972 kPa, m1 = 0.4384 | 806.21
393.14 K, 1801 kPa, m1 = 0.9305 | 828.39
393.14 K, 5624 kPa, m1 = 0.3043 | 745.3
393.14 K, 9870 kPa, m1 = 0.9305 | 840.24
393.14 K, 14926 kPa, m1 = 0.4384 | 777.8
393.14 K, 15321 kPa, m1 = 0.05681 | 722.2
393.14 K, 19767 kPa, m1 = 0.9305 | 853.32
393.14 K, 24945 kPa, m1 = 0.3043 | 771.16
393.14 K, 29892 kPa, m1 = 0.1696 | 757.28
393.14 K, 29921 kPa, m1 = 0.05681 | 740.47
393.14 K, 29972 kPa, m1 = 0.4384 | 796.15
393.15 K, 1241 kPa, m1 = 0.05681 | 701.02
393.15 K, 1627 kPa, m1 = 0.3043 | 739.2
393.15 K, 1798 kPa, m1 = 1.887 | 953.48
393.15 K, 1921 kPa, m1 = 1.49 | 903.69
393.15 K, 5026 kPa, m1 = 1.49 | 908.13
393.15 K, 10025 kPa, m1 = 0.3043 | 751.72
393.15 K, 10167 kPa, m1 = 0.1696 | 732.24
393.15 K, 10215 kPa, m1 = 0.05681 | 714.93
393.15 K, 10412 kPa, m1 = 1.49 | 915.55
393.15 K, 15026 kPa, m1 = 1.49 | 921.63
393.15 K, 19932 kPa, m1 = 0.05681 | 728.38
393.15 K, 20215 kPa, m1 = 1.49 | 928.15
393.15 K, 24815 kPa, m1 = 0.9305 | 859.38
393.15 K, 24872 kPa, m1 = 1.887 | 984.66
393.15 K, 25654 kPa, m1 = 1.49 | 934.64
393.15 K, 29841 kPa, m1 = 0.3043 | 776.76
393.15 K, 29885 kPa, m1 = 1.887 | 990.35
393.15 K, 29954 kPa, m1 = 1.49 | 939.52
393.15 K, 35014 kPa, m1 = 1.49 | 944.97
393.15 K, 39824 kPa, m1 = 0.05681 | 750.71
393.15 K, 39865 kPa, m1 = 0.3043 | 787.01
393.15 K, 39921 kPa, m1 = 1.49 | 949.96
393.15 K, 39924 kPa, m1 = 0.1696 | 767.7
393.16 K, 1957 kPa, m1 = 0.1696 | 720.03
393.16 K, 5064 kPa, m1 = 0.05681 | 707.12
393.16 K, 14857 kPa, m1 = 0.1696 | 738.74
393.16 K, 15924 kPa, m1 = 0.3043 | 759.83
393.16 K, 24739 kPa, m1 = 0.1696 | 751.32
393.16 K, 25067 kPa, m1 = 0.05681 | 734.81
393.16 K, 34854 kPa, m1 = 0.3043 | 782.09
393.16 K, 34855 kPa, m1 = 0.1696 | 762.63
393.16 K, 34890 kPa, m1 = 0.9305 | 870.24
393.16 K, 35621 kPa, m1 = 0.05681 | 746.57
393.16 K, 39922 kPa, m1 = 0.9305 | 875.04
393.17 K, 4784 kPa, m1 = 0.4384 | 763.23
393.17 K, 14838 kPa, m1 = 0.9305 | 847.01
393.17 K, 14975 kPa, m1 = 1.887 | 972.19
393.17 K, 19958 kPa, m1 = 0.3043 | 765.06
393.18 K, 10012 kPa, m1 = 1.887 | 965.38
393.19 K, 1568 kPa, m1 = 0.4384 | 758.24

Source: the NIST ThermoML archive (doi:10.1016/j.jct.2009.05.004)
